Several values for one entry are separate records, joined by “and”; a condition that tells them apart may be missing. Equal values may be shown once.
Experiments:
[1] = In vitro stability in PBS (radio-TLC); type: physicochemical; conditions: 37 °C, normalized to 0 h, n = 3
Method: Stability of the ^55Co-labeled folates was monitored over a period of 24 h in phosphate buffered saline (PBS) and mouse serum, to monitor the stability of a dose prior to injection (for potential shipment to a PET center) and match the longest biodistribution time point, respectively. The percentage of the intact complex was monitored at 1 h, 4 h, and 24 h via radio-TLC (PBS) or HPLC (mouse serum). […] In PBS, both radioconjugates retained 93% or greater stability at 24 h. […] As a control, one group of replicate serum tubes contained only [^55Co]CoCl2. […] Therefore, the peak corresponding to free [^55Co]CoCl2 (tR = 2.2 min) was used to determine the overall serum stability of the ^55Co-labeled chelates, which was approximately 95% for each compound at 24 h.
The ^55Co-labeled folate derivatives were diluted 10-fold in 10 mM PBS (pH = 7.4) or whole mouse serum (EMD Millipore, Burlington, MA) in 1.5 mL centrifuge tubes to final volumes of 100 μL. The tubes were incubated at 37 °C with vortexing at 900 rpm using an Eppendorf ThermoMixer C (Eppendorf, Hamburg, Germany) equipped with a 1.5 mL heating block. In the case of PBS stability, three replicate tubes were prepared with average final activity concentrations of 37 kBq (1 μCi) [^55Co]Co-cm10/μL or 37 kBq (1 μCi) [^55Co]Co-rf42/μL, and the final concentrations of precursor were 0.07 mM of cm10 or rf42. The percent of the intact complex was determined by analyzing 1 μL aliquots of each solution by radio-TLC at 1 h, 4 h and 24 h. For mouse serum stability, three replicate tubes were prepared for each time point for each complex. The final average activity concentrations were 11.1 kBq (0.3 μCi) [^55Co]Co-cm10/μL and 7.4 kBq (0.2 μCi) [^55Co]Co-rf42/μL and 0.02 mM final folate concentration. A control sample was prepared for each time point that contained an average of 10.4 kBq/μL of [^55Co]CoCl2. At each time point, 300 μL of ACN was added to each tube to precipitate serum proteins. The tubes were centrifuged at 4500 rpm for 5 min using a benchtop microcentrifuge (Eppendorf, Hamburg, Germany) and the supernatants collected. The pellets were washed once more, and the supernatants were collected and combined with the first ACN wash. The activities in the pellets and supernatants were determined using a 2480 Wizard2 Automatic Gamma Counter (Perkin Elmer, Waltham, MA, USA) to determine the amount of activity associated with the protein pellet. To determine the percentage of intact complex, the supernatant was diluted 2-fold with water, and 100 μL of this mixture was injected into the HPLC.

FR-expressing KB cells = assay: Cell binding and internalization in KB cells; type: cell-based, human; conditions: for uptake blocked by co-incubation with folic acid: 0.7 mM folic acid
Method: Cellular assays were performed using the human cervical cancer KB cell line, which was cultured in folate-deficient cell media prior to use. The ^55Co-labeled folates were incubated with FR-expressing KB cells to determine total uptake (i.e., all cell-associated activity, both surface-bound and internalized) and the internalized fraction. To determine whether uptake was receptor-mediated, some cells were co-incubated with folic acid, which binds to FRs with high affinity to act as a blocking agent. […] The uptake profiles for both of the tested radiofolates were similar to each other and more similar to the previously reported [^68Ga]Ga-rf42 complex, in contrast to [^64Cu]Cu-rf42 [14]. In the case of [^55Co]Co-cm10, 26% of the total uptake was internalized with 95% of the uptake blocked by co-incubation of the cells with 0.7 mM of folic acid (Figure 3).
The human cervical cancer cell line KB (CCL-17) was purchased from ATCC (Manassas, VA, USA) and cells were cultured in Gibco folate-deficient RPMI 1640 growth medium (FFRPMI, Thermo Scientific, Waltham, MA, USA) supplemented with 10% fetal bovine serum, and Gibco 1% Antibiotic-Antimycotic. Cells were cultured following standard procedures and were incubated at 37 °C in a 5% CO2 environment and harvested using Gibco 0.25% trypsin-EDTA.
Cell internalization was performed similarly to a previously published procedure. KB cells were harvested, washed with supplemented FFRPMI, and resuspended in supplemented FFRPMI at a final concentration of 1 × 10^5 cells/mL for seeding. In […], 1 mL of the cell mixture was added to each well, and the plates were incubated overnight to allow for adhesion and growth. The following morning, the radiofolates were prepared at molar activities of 331.7 MBq/μmol (9.0 mCi/µmol) [^55Co]Co-cm10 and 299.5 MBq/μmol (8.1 mCi/μmol) in 50 μL final volume and then diluted in supplement free FFRPMI (either with or without 1 mM folic acid) to a final volume of 1 mL/well. The plates were collected, the supernatants discarded, and 1 mL of the dilute radiofolates in media was added to each well (n = 4 for each condition). […] The stripping buffer and lysed cell fractions were collected separately and counted using an automatic gamma counter.
The lysed cell fractions in NaOH were saved, and the total protein concentration for each sample was determined using a Pierce Micro BCA Protein Assay kit (Thermo Scientific, Waltham, MA, USA). The samples were vortexed vigorously prior to assaying, and were analyzed without further dilution. The results were used to normalize the measured radioactivity to the average protein content in each well.

percent intact complex, PBS ([1]; 1 h) | percent intact complex, PBS ([1]; 4 h) | percent intact complex, PBS ([1]; 24 h) | Compound | fraction of total uptake internalized (FR-expressing KB cells) | uptake blocked by co-incubation with folic acid (FR-expressing KB cells)
97 ± 2% | 95 ± 1% | 93% and 93.4 ± 0.3% | Nc1nc2ncc(CNc3ccc(C(=O)N[C@@H](CCC(=O)NC(CCCCNC(=O)CN4CCN(CC(=O)O)CCN(CC(=O)O)CCN(CC(=O)O)CC4)C(=O)NC(CCCCNC(=O)CCCc4ccc(I)cc4)C(=O)O)C(=O)O)cc3)nc2c(=O)[nH]1.[55Co] (stereo partly shown) [[^55Co]Co-cm10] | 26% | 95%
98 ± 2% | 95.6 ± 0.9% | 93% and 93 ± 3% | Nc1nc2ncc(CNc3ccc(C(=O)N[C@@H](CCC(=O)NC(CCCCNC(=O)CCC(C(=O)O)N4CCN(CC(=O)O)CCN(CC(=O)O)CC4)C(=O)NC(CCCCNC(=O)CCCc4ccc(I)cc4)C(=O)O)C(=O)O)cc3)nc2c(=O)[nH]1.[55Co] (stereo partly shown) [[^55Co]Co-rf42] | 24% | 97%

Reference: article PMC6958329, “New ^55Co-labeled Albumin-Binding Folate Derivatives as Potential PET Agents for Folate Receptor Imaging” (Pharmaceuticals, 2019)
